Measured values as given in ChEMBL document CHEMBL2331431, “Anti-inflammatory lanostanoids and lactone derivatives from Antrodia camphorata” (J Nat Prod, 2013).
≈ marks a conversion by molar mass, not a printed value.

Experiments:
[1] = target: T1, Nitric oxide synthase, inducible (Mus musculus, UniProt P29477); experiment: Inhibition of iNOS-mediated nitric oxide production in LPS-stimulated mouse RAW264.7 cells after 24 hrs by Griess reaction analysis; assay type: cell-based
T1 sequence (P29477 whole entry): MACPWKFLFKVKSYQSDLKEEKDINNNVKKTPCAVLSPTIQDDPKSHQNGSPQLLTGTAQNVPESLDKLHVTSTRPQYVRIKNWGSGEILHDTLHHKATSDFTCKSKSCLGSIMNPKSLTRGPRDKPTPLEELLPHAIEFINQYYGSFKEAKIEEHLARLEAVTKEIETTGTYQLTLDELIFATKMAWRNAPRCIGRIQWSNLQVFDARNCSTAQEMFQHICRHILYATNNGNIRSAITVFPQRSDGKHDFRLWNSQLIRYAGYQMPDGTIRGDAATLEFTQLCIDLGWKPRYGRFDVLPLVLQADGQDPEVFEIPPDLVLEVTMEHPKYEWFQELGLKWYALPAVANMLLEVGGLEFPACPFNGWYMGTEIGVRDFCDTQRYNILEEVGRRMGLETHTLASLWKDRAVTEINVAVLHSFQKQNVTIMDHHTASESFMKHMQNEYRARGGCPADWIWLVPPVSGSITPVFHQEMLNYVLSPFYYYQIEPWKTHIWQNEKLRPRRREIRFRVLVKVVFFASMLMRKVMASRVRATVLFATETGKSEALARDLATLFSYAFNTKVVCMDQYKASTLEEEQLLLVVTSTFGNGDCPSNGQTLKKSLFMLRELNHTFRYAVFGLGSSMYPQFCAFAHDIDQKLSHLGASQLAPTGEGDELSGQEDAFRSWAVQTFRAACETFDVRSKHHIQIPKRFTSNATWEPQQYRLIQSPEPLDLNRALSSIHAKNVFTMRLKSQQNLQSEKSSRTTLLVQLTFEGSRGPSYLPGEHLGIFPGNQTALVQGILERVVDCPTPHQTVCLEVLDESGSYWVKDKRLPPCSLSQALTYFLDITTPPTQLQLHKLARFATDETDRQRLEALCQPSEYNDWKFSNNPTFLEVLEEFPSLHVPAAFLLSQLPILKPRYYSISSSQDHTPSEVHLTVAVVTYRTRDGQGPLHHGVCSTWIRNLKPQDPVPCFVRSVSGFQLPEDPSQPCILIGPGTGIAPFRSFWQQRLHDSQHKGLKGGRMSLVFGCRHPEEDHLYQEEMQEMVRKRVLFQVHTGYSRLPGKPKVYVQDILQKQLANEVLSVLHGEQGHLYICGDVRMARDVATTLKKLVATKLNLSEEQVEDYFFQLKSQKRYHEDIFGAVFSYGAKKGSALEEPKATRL

RAW264.7 = experiment: Cytotoxicity against LPS-stimulated mouse RAW264.7 cells at 20 ug/ml; assay type: cell-based
HL-60 = experiment: Cytotoxicity against human HL60 cells assessed as inhibition of cell proliferation after 24 hrs; assay type: functional, cell-based; conditions: HL-60, 24 h
K562 = experiment: Cytotoxicity against human K562 cells assessed as inhibition of cell proliferation after 24 hrs; assay type: functional, cell-based; conditions: K562, 24 h

Row | SMILES | IC50 [1] | Activity (RAW264.7) | IC50 (HL-60) | IC50 (K562)
1 | C/C(=C\CC[C@@H](C)[C@H]1CC[C@@]2(C)C3=C(C(=O)C[C@]12C)[C@@]1(C)CCC(=O)C(C)(C)[C@@H]1CC3=O)C(=O)O | 5 µM | Non-toxic |  | 
2 | CCOC(=O)CC[C@@H](C)[C@H]1CC(=O)[C@@]2(C)C3=C(C(=O)C[C@]12C)[C@@]1(C)CCC(=O)C(C)(C)[C@@H]1CC3=O [ETHYL LUCIDENATE F] | > 20 µM | Non-toxic |  | 
3 | C/C(=C\CC[C@@H](C)[C@H]1CC[C@@]2(C)C3=C([C@H](O)C[C@]12C)[C@@]1(C)CCC(=O)C(C)(C)[C@@H]1CC3=O)C(=O)O | 5 µM | Non-toxic |  | 
4 | COCC1(O)OC(=O)C=C1C (racemic) | > 20 µM | Non-toxic |  | 
5 | CCOC(=O)C(C)CC(=O)C[C@@H](C)[C@H]1CC(=O)[C@@]2(C)C3=C(C(=O)C(=O)[C@]12C)[C@@]1(C)CCC(=O)C(C)(C)[C@@H]1CC3=O (some centres not stated) | 6.2 µM | Non-toxic |  | 
6 | CC(=O)O[C@H]1C[C@H]([C@H](C)CC(=O)CC(C)C(=O)O)[C@@]2(C)CC(=O)C3=C(CC[C@H]4C(C)(C)C(=O)CC[C@]34C)[C@]12C (some centres not stated) | 4.9 µM | Non-toxic |  | 
7 | CC(CC(=O)C[C@@H](C)C1=CC(=O)[C@@]2(C)C3=C(C(=O)C[C@]12C)[C@@]1(C)CCC(=O)C(C)(C)[C@@H]1C[C@@H]3O)C(=O)O (some centres not stated) | > 20 µM | Non-toxic |  | 
8 | COC(=O)C(C)CC(=O)C[C@@H](C)[C@H]1CC(=O)[C@@]2(C)C3=C(C(=O)C(=O)[C@]12C)[C@@]1(C)CCC(=O)C(C)(C)[C@@H]1CC3=O (some centres not stated) | 8.9 µM | Non-toxic |  | 
9 | COc1cc(CCC(=O)O)oc(=O)c1 | > 20 µM | Non-toxic |  | 
10 | CCOC(=O)CC[C@@H](C)[C@H]1CC(=O)[C@@]2(C)C3=C(C(=O)C[C@]12C)[C@@]1(C)CCC(=O)C(C)(C)[C@@H]1C[C@@H]3O [ETHYL LUCIDENATE A] | 10.8 µM | Non-toxic | 30 µg/mL (≈ 61.6 µM) | 30 µg/mL (≈ 61.6 µM)
